Source: US8815796B2, “Polyheterocyclic compounds highly potent as HCV inhibitors” (AB Pharma Ltd., priority 2010, dated 2014)

Each compound was assayed against T1, HCV NS3-4A protease (Hepatitis C virus genotype 1a, UniProt P27958) (assay: HCV NS3-4A protease assay in vitro (FRET-S substrate)). Conditions: HCV NS3-4A protease inhibition, 37° C., class symbols; read-out: NS3-NS4A IC50.
T1 construct: HCV NS3-4A protease
Assay type: biochemical
Procedure: HCV NS3-4A Protease Assay In Vitro.
The assay was conducted in Buffer A containing 30 mM NaCl, 5 mM CaCl2, 10 mM DTT, 50 mM Tris (pH7.8), using the Ac-Asp-Glu-Asp(EDANS)-Glu-Glu-Abu-ψ-[COO]-Ala-Ser-Lys (DABCYL)-NH2 (FRET-S) fluorescent peptide (AnaSpec, USA) as substrate. Briefly, 140 μL buffer A, 20 μL compounds dissolved in buffer A with different concentration and 20 μL HCV NS3-4A protease diluted in buffer A were added into 96-well plate respectively and mixed well. The reaction was initiate with adding 20 μL of FRET-S. Reactions were continuously monitored at 37° C. using a BMG Polarstar Galaxy (MTX Lab Systems, Inc. USA), with excitation and emission filters of 355 nm and 520 nm, respectively. The 50% inhibitory concentration (IC50) was calculated with Reed & Muench methods.

T1 sequence (P27958 1027-1657): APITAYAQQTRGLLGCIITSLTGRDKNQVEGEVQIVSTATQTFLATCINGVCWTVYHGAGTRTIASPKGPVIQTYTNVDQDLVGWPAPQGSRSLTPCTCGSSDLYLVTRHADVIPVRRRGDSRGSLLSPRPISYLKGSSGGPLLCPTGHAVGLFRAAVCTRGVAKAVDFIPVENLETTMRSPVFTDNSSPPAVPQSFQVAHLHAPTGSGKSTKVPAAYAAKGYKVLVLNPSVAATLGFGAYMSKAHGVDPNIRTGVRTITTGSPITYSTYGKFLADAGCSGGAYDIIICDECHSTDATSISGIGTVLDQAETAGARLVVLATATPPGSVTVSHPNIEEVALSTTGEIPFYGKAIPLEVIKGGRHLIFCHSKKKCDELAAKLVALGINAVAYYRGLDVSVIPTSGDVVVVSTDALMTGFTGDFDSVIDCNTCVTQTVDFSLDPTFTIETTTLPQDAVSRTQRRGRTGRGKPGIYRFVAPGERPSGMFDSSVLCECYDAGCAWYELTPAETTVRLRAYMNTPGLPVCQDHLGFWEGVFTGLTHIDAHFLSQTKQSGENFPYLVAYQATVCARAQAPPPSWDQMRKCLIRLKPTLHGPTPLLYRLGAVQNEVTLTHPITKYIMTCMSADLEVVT
T1 sequence (P27958 1658-1711): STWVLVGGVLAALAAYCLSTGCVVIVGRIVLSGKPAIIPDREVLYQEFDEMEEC

Structure (SMILES)	IC50 [nM]
CC(C)(C)OC(=O)N[C@H]1CCCCC/C=C\[C@@H]2C[C@@]2(C(=O)O)NC(=O)[C@@H]2C[C@@H](OC(=O)N3Cc4ccc5c(c4C3)OCO5)CN2C1=O [Compound 11a]	> 200
CC(C)(C)OC(=O)N[C@H]1CCCCC/C=C\[C@@H]2C[C@@]2(C(=O)O)NC(=O)[C@@H]2C[C@@H](OC(=O)N3Cc4ccc5c(c4C3)OCCO5)CN2C1=O [Compound 11b]	> 200
CC(C)(C)OC(=O)N[C@H]1CCCCC/C=C\[C@@H]2C[C@@]2(C(=O)O)NC(=O)[C@@H]2C[C@@H](OC(=O)N3Cc4cc5c(cc4C3)OCCO5)CN2C1=O [Compound 11c]	> 200
CC(C)(C)OC(=O)N[C@H]1CCCCC/C=C\[C@@H]2C[C@@]2(C(=O)O)NC(=O)[C@@H]2C[C@@H](OC(=O)N3Cc4cc5c(cc4C3)OCO5)CN2C1=O [Compound 11d]	> 200
CC(C)(C)OC(=O)N[C@H]1CCCCC/C=C\[C@@H]2C[C@@]2(C(=O)NS(=O)(=O)C2CC2)NC(=O)[C@@H]2C[C@@H](OC(=O)N3Cc4cccc(F)c4C3)CN2C1=O [Compound 12-Ref, reference compound]	< 30
CC(C)(C)OC(=O)N[C@H]1CCCCC/C=C\[C@@H]2C[C@@]2(C(=O)NS(=O)(=O)C2CC2)NC(=O)[C@@H]2C[C@@H](OC(=O)N3Cc4ccc5c(c4C3)OCO5)CN2C1=O [Compound 12a]	< 30
CC(C)(C)OC(=O)N[C@H]1CCCCC/C=C\[C@@H]2C[C@@]2(C(=O)NS(=O)(=O)C2CC2)NC(=O)[C@@H]2C[C@@H](OC(=O)N3Cc4ccc5c(c4C3)OCCO5)CN2C1=O [Compound 12b]	< 30
CC(C)(C)OC(=O)N[C@H]1CCCCC/C=C\[C@@H]2C[C@@]2(C(=O)NS(=O)(=O)C2CC2)NC(=O)[C@@H]2C[C@@H](OC(=O)N3Cc4cc5c(cc4C3)OCCO5)CN2C1=O [Compound 12c]	< 30
CC(C)(C)OC(=O)N[C@H]1CCCCC/C=C\[C@@H]2C[C@@]2(C(=O)NS(=O)(=O)C2CC2)NC(=O)[C@@H]2C[C@@H](OC(=O)N3Cc4cc5c(cc4C3)OCO5)CN2C1=O [Compound 12d]	< 30
CC(C)S(=O)(=O)NC(=O)[C@@]12C[C@H]1/C=C\CCCCC[C@H](NC(=O)OC(C)(C)C)C(=O)N1C[C@H](OC(=O)N3Cc4ccc5c(c4C3)OCO5)C[C@H]1C(=O)N2 [Compound 12e]	< 30

Now from value to compound:

IC50 [nM]	Structure (SMILES)
< 30	CC(C)S(=O)(=O)NC(=O)[C@@]12C[C@H]1/C=C\CCCCC[C@H](NC(=O)OC(C)(C)C)C(=O)N1C[C@H](OC(=O)N3Cc4ccc5c(c4C3)OCCO5)C[C@H]1C(=O)N2 [Compound 12f]
< 30	CC(C)S(=O)(=O)NC(=O)[C@@]12C[C@H]1/C=C\CCCCC[C@H](NC(=O)OC(C)(C)C)C(=O)N1C[C@H](OC(=O)N3Cc4cc5c(cc4C3)OCCO5)C[C@H]1C(=O)N2 [Compound 12g]
< 30	CC(C)S(=O)(=O)NC(=O)[C@@]12C[C@H]1/C=C\CCCCC[C@H](NC(=O)OC(C)(C)C)C(=O)N1C[C@H](OC(=O)N3Cc4cc5c(cc4C3)OCO5)C[C@H]1C(=O)N2 [Compound 12h]
30 to 200	O=C1N[C@]2(C(=O)NS(=O)(=O)C3CC3)C[C@H]2/C=C\CCCCC[C@H](N2CCCS2(=O)=O)C(=O)N2C[C@H](OC(=O)N3Cc4cc5c(cc4C3)OCCO5)C[C@@H]12 [Compound 12j]
< 30	O=C1N[C@]2(C(=O)NS(=O)(=O)C3CC3)C[C@H]2/C=C\CCCCC[C@H](N2CCCS2(=O)=O)C(=O)N2C[C@H](OC(=O)N3Cc4cc5c(cc4C3)OCO5)C[C@@H]12 [Compound 12k]
30 to 200	O=C1N[C@]2(C(=O)NS(=O)(=O)C3CC3)C[C@H]2/C=C\CCCCC[C@H](N2CCCS2(=O)=O)C(=O)N2C[C@H](OC(=O)N3Cc4cccc(F)c4C3)C[C@@H]12 [Compound 12m]
< 30	CC(C)(C)OC(=O)N[C@H]1CCCCC/C=C\[C@@H]2C[C@@]2(C(=O)NS(=O)(=O)C2CC2)NC(=O)[C@@H]2C[C@@H](OC(=O)N3Cc4ccc5c(c4C3)OCCCO5)CN2C1=O [Compound 12n]
< 30	CC(C)(C)OC(=O)N[C@H]1CCCCC/C=C\[C@@H]2C[C@@]2(C(=O)NS(=O)(=O)C2CC2)NC(=O)[C@@H]2C[C@@H](OC(=O)N3Cc4cc5c(cc4C3)OCCCO5)CN2C1=O [Compound 12p]
